Data: patent US20260285888A1, “HETEROCYCLIC COMPOUND AND USE THEREOF” (OTSUKA PHARMACEUTICAL CO., LTD., priority 2023, published 2026)

Tests used:
[1] = Study for confirmation of conversion to brexpiprazole in a buffer (stability of the evaluation compounds); type: physicochemical; conditions: in buffer, average of duplicate; for Concentration of brexpiprazole formed: 60-minute reaction sample; for Concentration of evaluation compound decreased: decrease in 60-minute vs 0-minute reaction sample
Method in brief: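 Compounds (final 1 μmol/L, from 100 μmol/L working solutions) incubated in buffer at 37° C. for 0 or 60 min, in duplicate, after 3 min pre-incubation of the reaction solution. Reactions stopped with acetonitrile/isopropanol (4:1) containing internal standards; compound and formed brexpiprazole quantified against 0.01–1 μmol/L calibration samples.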

in vitro = type: cell-based, human; conditions: human, differentiated hl-60 cells, 300 μmol/L, about 24 hours, PMA-differentiated HL-60 cells, LDH; no-treatment 0%, cell lysis buffer 100%; read-out: cytotoxicity (%) Evaluation compound results
Procedure: An HL-60 cell line (human acute promyelocytic leukemia cells) was successively cultured in RPMI 1640 containing 20% fetal bovine serum (FBS) at 37° C. in 95% atmosphere/5% CO2. Before evaluation, the cells were pre-cultured for about 72 hours in the presence of 10 nM phorbol 12-myristate 13-acetate (PMA) to induce macrophage-like differentiation.
Evaluation compounds were dissolved in DMSO to obtain 30 mmol/L solutions (or suspensions). Each DMSO solution was diluted 100-fold with RPMI 1640 containing 2% FBS (final concentration of the compound: 300 μmol/L) to obtain a treatment solution. The culture supernatant of the differentiated HL-60 cells was removed, and each treatment solution was added and cultured for about 24 hours, followed by cytotoxicity evaluation.
The activity of lactate dehydrogenase (LDH) was measured in the treatment solutions exposed to the cells for about 24 hours by using a commercial kit (Cytotoxicity LDH Assay Kit-WST, Dojindo Laboratories) and a plate reader (Tecan Infinite M1000). The obtained measurement values were used to calculate cytotoxicity (%) as comparison values for each evaluation compound-treated group, with the no-treatment group taken as 0% and the cell lysis buffer-treated group taken as 100%. The test was conducted in triplicate in three wells each, and the average values were used as adopted values.

Structure (SMILES) | Concentration of brexpiprazole formed [1] [nM] | Concentration of evaluation compound decreased [1] [nM] | cytotoxicity at 24 h, 300 µM (in vitro) [%]
O=c1ccc2ccc(OCCCC[N+]3(COP(=O)([O-])OCCCCCCO)CCN(c4cccc5sccc45)CC3)cc2[nH]1 [EX 44, (4-(benzo[b]thiophen-4-yl)-1-(4-((2-oxo-1,2-dihydroquinolin-7-yl)oxy)butyl)piperazin-1-ium-1-yl)methyl (6-hydroxyhexyl) phosphate] | 0 | -50 | -8
O=c1ccc2ccc(OCCCC[N+]3(COP(=O)([O-])OCCCCCCCCCO)CCN(c4cccc5sccc45)CC3)cc2[nH]1 [EX 46, (4-(benzo[b]thiophen-4-yl)-1-(4-((2-oxo-1,2-dihydroquinolin-7-yl)oxy)butyl)piperazin-1-ium-1-yl)methyl (9-hydroxynonyl) phosphate] | 0 | 40 | 14
CC(C)(CO)COP(=O)([O-])OC[N+]1(CCCCOc2ccc3ccc(=O)[nH]c3c2)CCN(c2cccc3sccc23)CC1 [EX 48, (4-(benzo[b]thiophen-4-yl)-1-(4-((2-oxo-1,2-dihydroquinolin-7-yl)oxy)butyl)piperazin-1-ium-1-yl)methyl (3-hydroxy-2,2-dimethylpropyl) phosphate] | 0 | -30 | -9
COCCCCOP(=O)([O-])OC[N+]1(CCCCOc2ccc3ccc(=O)[nH]c3c2)CCN(c2cccc3sccc23)CC1 [EX 50, (4-(benzo[b]thiophen-4-yl)-1-(4-((2-oxo-1,2-dihydroquinolin-7-yl)oxy)butyl)piperazin-1-ium-1-yl)methyl (4-methoxybutyl) phosphate] | 0 | 10 | -8
CC(C)COCCOP(=O)([O-])OC[N+]1(CCCCOc2ccc3ccc(=O)[nH]c3c2)CCN(c2cccc3sccc23)CC1 [EX 51, (4-(benzo[b]thiophen-4-yl)-1-(4-((2-oxo-1,2-dihydroquinolin-7-yl)oxy)butyl)piperazin-1-ium-1-yl)methyl (2-isobutoxyethyl) phosphate] | 0 | 50 | -9
O=c1ccc2ccc(OCCCC[N+]3(COP(=O)([O-])OCCOCC4CC4)CCN(c4cccc5sccc45)CC3)cc2[nH]1 [EX 52, (4-(benzo[b]thiophen-4-yl)-1-(4-((2-oxo-1,2-dihydroquinolin-7-yl)oxy)butyl)piperazin-1-ium-1-yl)methyl (2-(cyclopropylmethoxy)ethyl) phosphate] | 0 | -40 | -1
COCC(COC)OP(=O)([O-])OC[N+]1(CCCCOc2ccc3ccc(=O)[nH]c3c2)CCN(c2cccc3sccc23)CC1 [EX 56, (4-(benzo[b]thiophen-4-yl)-1-(4-((2-oxo-1,2-dihydroquinolin-7-yl)oxy)butyl)piperazin-1-ium-1-yl)methyl (1,3-dimethoxypropan-2-yl) phosphate] | 0 | 40 | -6
CC(C)(C)[Si](C)(C)OCCCCOP(=O)([O-])OC[N+]1(CCCCOc2ccc3ccc(=O)[nH]c3c2)CCN(c2cccc3sccc23)CC1 [EX 60, (4-(benzo[b]thiophen-4-yl)-1-(4-((2-oxo-1,2-dihydroquinolin-7-yl)oxy)butyl)piperazin-1-ium-1-yl)methyl (4-((tert-butyldimethylsilyl)oxy)butyl) phosphate] | 0 | 90 | 16

The next lines start with results.

Concentration of brexpiprazole formed [1] [nM] | Concentration of evaluation compound decreased [1] [nM] | Structure (SMILES) | cytotoxicity at 24 h, 300 µM (in vitro) [%]
0 | 30 | O=c1ccc2ccc(OCCCC[N+]3(COP(=O)([O-])OC/C=C/CO)CCN(c4cccc5sccc45)CC3)cc2[nH]1 [EX 42, (E)-(4-(benzo[b]thiophen-4-yl)-1-(4-((2-oxo-1,2-dihydroquinolin-7-yl)oxy)butyl)piperazin-1-ium-1-yl)methyl (4-hydroxybut-2-en-1-yl) phosphate] | 8
0 | 120 | O=c1ccc2ccc(OCCCC[N+]3(COP(=O)([O-])OC/C=C\CO)CCN(c4cccc5sccc45)CC3)cc2[nH]1 [EX 43, (Z)-(4-(benzo[b]thiophen-4-yl)-1-(4-((2-oxo-1,2-dihydroquinolin-7-yl)oxy)butyl)piperazin-1-ium-1-yl)methyl (4-hydroxybut-2-en-1-yl) phosphate] | -6
0 | 70 | O=c1ccc2ccc(OCCCC[N+]3(COP(=O)([O-])OCCCCCCCO)CCN(c4cccc5sccc45)CC3)cc2[nH]1 [EX 45, (4-(benzo[b]thiophen-4-yl)-1-(4-((2-oxo-1,2-dihydroquinolin-7-yl)oxy)butyl)piperazin-1-ium-1-yl)methyl (7-hydroxyheptyl) phosphate] | 3
0 | 0 | O=c1ccc2ccc(OCCCC[N+]3(COP(=O)([O-])OCC4(CO)CC4)CCN(c4cccc5sccc45)CC3)cc2[nH]1 [EX 47, (4-(benzo[b]thiophen-4-yl)-1-(4-((2-oxo-1,2-dihydroquinolin-7-yl)oxy)butyl)piperazin-1-ium-1-yl)methyl ((1-(hydroxymethyl)cyclopropyl)methyl) phosphate] | -5
0 | 50 | COCCCOP(=O)([O-])OC[N+]1(CCCCOc2ccc3ccc(=O)[nH]c3c2)CCN(c2cccc3sccc23)CC1 [EX 49, (4-(benzo[b]thiophen-4-yl)-1-(4-((2-oxo-1,2-dihydroquinolin-7-yl)oxy)butyl)piperazin-1-ium-1-yl)methyl (3-methoxypropyl) phosphate] | -7
0 | 60 | COCCOCOCCCCOP(=O)([O-])OC[N+]1(CCCCOc2ccc3ccc(=O)[nH]c3c2)CCN(c2cccc3sccc23)CC1 [EX 53, (4-(benzo[b]thiophen-4-yl)-1-(4-((2-oxo-1.2-dihydroquinolin-7-yl)oxy)butyl)piperazin-1-ium-1-yl)methyl (4-((2-methoxyethoxy)methoxy)butyl) phosphate] | -3
0 | 140 | COCC1CCC(COP(=O)([O-])OC[N+]2(CCCCOc3ccc4ccc(=O)[nH]c4c3)CCN(c3cccc4sccc34)CC2)CC1 (stereo not drawn) [EX 54, (4-(benzo[b]thiophen-4-yl)-1-(4-((2-oxo-1,2-dihydroquinolin-7-yl)oxy)butyl)piperazin-1-ium-1-yl)methyl ((4-(methoxymethyl)cyclohexyl)methyl) phosphate] | -10
0 | 70 | CC1(C)OCC(COP(=O)([O-])OC[N+]2(CCCCOc3ccc4ccc(=O)[nH]c4c3)CCN(c3cccc4sccc34)CC2)CO1 [EX 55, (4-(benzo[b]thiophen-4-yl)-1-(4-((2-oxo-1,2-dihydroquinolin-7-yl)oxy)butyl)piperazin-1-ium-1-yl)methyl ((2,2-dimethyl-1,3-dioxan-5-yl)methyl) phosphate] | -7
0 | 90 | O=C(OCCCCCCOP(=O)([O-])OC[N+]1(CCCCOc2ccc3ccc(=O)[nH]c3c2)CCN(c2cccc3sccc23)CC1)c1ccccc1 [EX 57, (4-(benzo[b]thiophen-4-yl)-1-(4-((2-oxo-1,2-dihydroquinolin-7-yl)oxy)butyl)piperazin-1-ium-1-yl)methyl (6-(benzoyloxy)hexyl) phosphate] | 4
0 | 50 | Cc1cccc(C(=O)OCCCCCCOP(=O)([O-])OC[N+]2(CCCCOc3ccc4ccc(=O)[nH]c4c3)CCN(c3cccc4sccc34)CC2)n1 [EX 59, (4-(benzo[b]thiophen-4-yl)-1-(4-((2-oxo-1,2-dihydroquinolin-7-yl)oxy)butyl)piperazin-1-ium-1-yl)methyl (6-((6-methylpicolinoyl)oxy)hexyl) phosphate] | 1
0 | 180 | O=c1ccc2ccc(OCCCC[N+]3(COP(=O)([O-])OCCCCBr)CCN(c4cccc5sccc45)CC3)cc2[nH]1 [EX 62, (4-(benzo[b]thiophen-4-yl)-1-(4-((2-oxo-1,2-dihydroquinolin-7-yl)oxy)butyl)piperazin-1-ium-1-yl)methyl (4-bromobutyl) phosphate] | 3
